Measured values reported in patent US20080200442A1, “Compositions and Methods for Treating, Reducing, Ameliorating, or Preventing Infections of the Ear or Upper Respiratory Tract” (priority 2007, published 2008).
In brackets after ≈: the same amount, converted by molar mass.

Each compound was assayed on Moraxella species (assay: In vitro anti-bacterial activity (MIC90), ophthalmologic clinical bacteria isolates). Settings: Gram-negative.
Type: cell-based

SMILES | MIC90 [µg/mL]
CCn1cc(C(=O)O)c(=O)c2cc(F)c(N3CCNCC3)cc21 [Norfloxacin] | 0.25 (≈ 0.783 µM)

What follows are compounds tested on Pseudomonas aeruginosa in the same assay as above. Settings: Gram-negative.
Type: cell-based

SMILES | MIC90 [µg/mL]
CCn1cc(C(=O)O)c(=O)c2cc(F)c(N3CCNCC3)cc21 [Norfloxacin] | 4 (≈ 12.5 µM)

The compounds below were run on Haemophilus influenzae in the same assay as above. Settings: Gram-negative.
Type: cell-based

SMILES | MIC90 [µg/mL]
CCn1cc(C(=O)O)c(=O)c2cc(F)c(N3CCNCC3)cc21 [Norfloxacin] | ≤ 0.06

What follows are compounds tested on Staphylococcus aureus in the same assay as above. Settings: Gram-positive.
Type: cell-based

SMILES | MIC90 [µg/mL]
CCn1cc(C(=O)O)c(=O)c2cc(F)c(N3CCNCC3)cc21 [Norfloxacin] | > 128

Each compound was assayed on Coagulase-negative Staphylococcus in the same assay as above. Settings: Gram-positive.
Type: cell-based

SMILES | MIC90 [µg/mL]
CCn1cc(C(=O)O)c(=O)c2cc(F)c(N3CCNCC3)cc21 [Norfloxacin] | 128 (≈ 401 µM)

The compounds below were run on Streptococcus pneumoniae in the same assay as above. Settings: Gram-positive.
Type: cell-based

SMILES | MIC90 [µg/mL]
CCn1cc(C(=O)O)c(=O)c2cc(F)c(N3CCNCC3)cc21 [Norfloxacin] | 8 (≈ 25.1 µM)

The compounds below were run on Corynebacterium species in the same assay as above. Settings: Gram-positive.
Type: cell-based

SMILES | MIC90 [µg/mL]
CCn1cc(C(=O)O)c(=O)c2cc(F)c(N3CCNCC3)cc21 [Norfloxacin] | 16 (≈ 50.1 µM)

These compounds were tested on Propionibacterium acnes in the same assay as above. Settings: Cutibacterium acnes, Gram-positive.
Type: cell-based

SMILES | MIC90 [µg/mL]
CCn1cc(C(=O)O)c(=O)c2cc(F)c(N3CCNCC3)cc21 [Norfloxacin] | 4 (≈ 12.5 µM)

Each compound was assayed on Ofloxacin-resistant Staphylococcus aureus in the same assay as above. Settings: not given.
Type: cell-based

SMILES | MIC90 [µg/mL]
CCn1cc(C(=O)O)c(=O)c2cc(F)c(N3CCNCC3)cc21 [Norfloxacin] | > 128

What follows are compounds tested on Gentamycin-resistant Staphylococcus aureus in the same assay as above. Settings: not given.
Type: cell-based

SMILES | MIC90 [µg/mL]
CCn1cc(C(=O)O)c(=O)c2cc(F)c(N3CCNCC3)cc21 [Norfloxacin] | 128 (≈ 401 µM)

Each compound was assayed on Gentamycin-resistant Pseudomonas aeruginosa in the same assay as above. Settings: not given.
Type: cell-based

SMILES | MIC90 [µg/mL]
CCn1cc(C(=O)O)c(=O)c2cc(F)c(N3CCNCC3)cc21 [Norfloxacin] | 128 (≈ 401 µM)

What follows are compounds tested on Penicillin-resistant Streptococcus pneumoniae in the same assay as above. Settings: not given.
Type: cell-based

SMILES | MIC90 [µg/mL]
CCn1cc(C(=O)O)c(=O)c2cc(F)c(N3CCNCC3)cc21 [Norfloxacin] | 8 (≈ 25.1 µM)
